Article PMC8402547, “In Vitro and In Vivo Analysis of Ochratoxin A-Derived Glucuronides and Mercapturic Acids as Biomarkers of Exposure” (Toxins, 2021)

Columns and labels:
Format in all cases: in vivo, male F344/N rats
[1] = 90-day rat study: 24 h urinary excretion of OTA and OTA-glucuronides, LC–MS/MS with and without β-glucuronidase hydrolysis; details: for Urinary excretion, fraction of the administered dose / Urinary excretion: 5 days/week; for Urinary excretion, fraction of the administered dose: 24 h urine
Procedure: (§1) 90-day study: Male F344/N rats (6–7 weeks old) were purchased from Harlan-Winkelmann, Borchen, Germany. Animals were housed in groups of 5 in Macrolon type-4 cages and allowed free access to pelleted standard rat maintenance diet (SSNIFF, Soest, Germany) and tap water. After a week of acclimatization, rats (n = 5/dose) were exposed to OTA dissolved in corn oil by oral gavage at doses of 0, 21, 70 or 210 µg/kg bw for 2, 4 or 13 weeks (5 days per week). For urine collection, animals were transferred into metabolic cages (Tecniplast Metabolic Cage—Rats Over 300 g; Tecniplast, Italy) 48 h prior to necropsy and fasted for 20 h but allowed free access to tap water. Urine was collected for 24 h on ice, aliquoted and stored at −20 °C until further analysis.
(§2) Duplicate analysis of OTA in urine samples with and without enzymatic hydrolysis allowed for indirect measurement of glucuronides, whereby an increase in the concentration of OTA in the samples incubated with enzyme compared to those without enzymatic treatment reflected the hydrolyzed glucuronides. Aliquots of rat urine (125 µL) were mixed with 0.1 M sodium acetate (104 µL; pH = 5). For analysis of the concentration of OTA without enzymatic hydrolysis, an aliquot (30 µL) of this solution was removed and mixed with 7 µL acetonitrile. The remaining solution (199 µL) was incubated with β-glucuronidase (1.65 µL; <100,000 units/mL) at 37 °C for 1 h. Hydrolysis was terminated by addition of ice-cold acetonitrile (50 µL) and centrifugation (15 min., 4 °C, 20,000× g). To 98 µL supernatant, 2 µL isotopically labeled ^13C20-OTA in acetonitrile (14-day study: 5 µg/mL; 90-day study: 1 µg/mL) was added as an internal standard. For analysis, 10 µL of each sample were injected into the LC–MS system and analyzed using the method described below. A calibration curve was prepared from solutions of OTA and the isotopically labeled ^13C20-OTA internal standard in acetonitrile and subsequent dilution with urine of a control animal.
(§3) LC–MS/MS analyses were performed on an Agilent 1100 series LC coupled to an API 2000/Q-Trap mass spectrometer (Applied Biosystems/MDS Sciex, Concord, Canada). Samples were injected into the LC–MS/MS system through an Agilent 1100 series autosampler. Separations were carried out on a ReproSil-Pur C18 AQ column (2 mm × 150 mm, 5 µm; Dr. Maisch; Ammerbuch, Germany). Gradient elution of OTA-derived metabolites was carried out with water + 0.1% formic acid (solvent A) and acetonitrile (solvent B). Initially, solvent A was held isocratic for 5 min at 100%, followed by a linear gradient to 95% B in 5 min. These conditions were held for further 5 min. Within 1 min, the gradient decreased linearly to 0% B and remained at initial conditions until the end of analysis (30 min). A flow rate of 0.2 mL/min was used. For each run, 10 µL of the respective sample were injected by the autosampler.
(§4) The API 2000/Q-Trap mass spectrometer was operated with a Turbo Ion Spray source in negative ion mode with a voltage of −4000 V. Spectral data were recorded with N2 as the heater gas at 450 °C and as the collision gas (CAD = −2) in multiple reaction monitoring mode (MRM).

[2] = Direct LC–MS/MS analysis of OTA metabolites in urine of OTA-treated rats; details: OTA up to 2 mg/kg bw, negative ionization mode
Procedure: Archived urine samples from previous repeated dose oral toxicity studies on OTA in male F344/N rats were used. The studies were performed according to national animal welfare regulations after authorization by the local authorities (Regierung von Unterfranken, AZ 621-2531.01-9/98 and AZ 54-2531.01-59/05).
(§5) 14-day study: Male F344 rats (170–190 g) were purchased from Charles-River Laboratories, Sulzfeld, Germany. Animals had free access to water and standard diet (Altromin) and were kept under standard conditions (12 h day/night cycle, temperature 21–23 °C, humidity 45–55%). Rats were transferred to metabolic cages (Tecniplast Metabolic Cage—Rats Over 300 g; Tecniplast, Italy) for collection of urine 3 days prior to dosing. Animals were administered OTA dissolved in corn oil by oral gavage at 0, 0.25, 0.5, 1.0 and 2.0 mg/kg bw for 2 weeks (5 days per week). Urine was collected every 12 h on day 1 of treatment and every 24 h thereafter on ice, aliquoted and stored at −20 °C until further analysis.
as §1
Urine samples were diluted with acetonitrile (2:1), vortexed and cleared via centrifugation (4 °C, 15 min., 2000× g) to precipitate proteins. Of the resulting supernatant, 10 µL were injected into the LC–MS system and analyzed using the method described below.
as §3, §4
In addition to MRM, constant neutral loss of 129 amu in the negative ion mode based on the characteristic fragmentation pattern of mercapturic acids was used to screen for N-acetyl-cysteine conjugates of OTA. Furthermore, constant neutral loss of 176 amu in positive ion mode based on the fragmentation pattern of glucuronic acid conjugates was used to screen for OTA glucuronides.

[3] = 14-day rat study: 24 h urinary excretion of OTA and OTA-glucuronides, LC–MS/MS with and without β-glucuronidase hydrolysis; details: for Urinary excretion / Urinary excretion, fraction of the administered dose: 2 mg OTA/kg bw oral, 5 d/week; for Urinary excretion, fraction of the administered dose: 24 h urine
Procedure: as §5, §2, §3, §4

[4] = 4 weeks treatment, OTA 210 μg/kg bw per day oral, n = 1

Compound: C[C@@H]1Cc2c(Cl)cc(C(=O)N[C@@H](Cc3ccccc3)C(=O)O)c(O)c2C(=O)O1 [OTA, Ochratoxin A]
- Urinary excretion, fraction of the administered dose ([1]; 2 weeks treatment, OTA 21 μg/kg bw per day oral): 1.9%
- Urinary excretion ([1]; 2 weeks treatment, OTA 21 μg/kg bw per day oral, mean ± SD): 0.22 ± 0.03 nmol/24 h
- Urinary excretion, fraction of the administered dose ([1]; 2 weeks treatment, OTA 70 μg/kg bw per day oral): 0.8%
- Urinary excretion ([1]; 2 weeks treatment, OTA 70 μg/kg bw per day oral, mean ± SD): 0.32 ± 0.12 nmol/24 h
- Urinary excretion, fraction of the administered dose ([1]; 2 weeks treatment, OTA 210 μg/kg bw per day oral): 1.2%
- Urinary excretion ([1]; 2 weeks treatment, OTA 210 μg/kg bw per day oral, mean ± SD): 1.35 ± 0.36 nmol/24 h
- Urinary excretion, fraction of the administered dose ([1]; 4 weeks treatment, OTA 70 μg/kg bw per day oral): 0.9%
- Urinary excretion ([1]; 4 weeks treatment, OTA 70 μg/kg bw per day oral, mean ± SD): 0.51 ± 0.09 nmol/24 h
- Urinary excretion, fraction of the administered dose [1, 4]: 4.6%
- Urinary excretion [1, 4]: 5.86 nmol/24 h
- Urinary excretion, fraction of the administered dose ([1]; 13 weeks treatment, OTA 21 μg/kg bw per day oral): 1.1%
- Urinary excretion ([1]; 13 weeks treatment, OTA 21 μg/kg bw per day oral, mean ± SD): 0.18 ± 0.07 nmol/24 h
- Urinary excretion, fraction of the administered dose ([1]; 13 weeks treatment, OTA 70 μg/kg bw per day oral): 1.9%
- Urinary excretion ([1]; 13 weeks treatment, OTA 70 μg/kg bw per day oral, mean ± SD): 0.97 ± 0.36 nmol/24 h
- Urinary excretion, fraction of the administered dose ([1]; 13 weeks treatment, OTA 210 μg/kg bw per day oral): 2.5%
- Urinary excretion ([1]; 13 weeks treatment, OTA 210 μg/kg bw per day oral, mean ± SD): 3.88 ± 1.50 nmol/24 h
- Fraction of the administered dose excreted in urine ([1]; range over 90-day study, OTA 21, 70 and 210 µg/kg (5 days/week)): 0.8 to 4.6%
- Detection in urine of OTA-treated rats by direct LC–MS/MS (MRM) [2]: consistently found
- Urinary excretion ([3]; animal 2, day 3 of treatment): 15.3 nmol/24 h
- Urinary excretion, fraction of the administered dose ([3]; animal 2, day 3 of treatment): 1.8%
- Urinary excretion ([3]; animal 2, day 5 of treatment): 40.3 nmol/24 h
- Urinary excretion, fraction of the administered dose ([3]; animal 2, day 5 of treatment): 4.7%
- Urinary excretion ([3]; animal 2, day 7 of treatment): 35.4 nmol/24 h
- Urinary excretion, fraction of the administered dose ([3]; animal 2, day 7 of treatment): 4.1%
- Urinary excretion ([3]; animal 2, day 9 of treatment): 32.9 nmol/24 h
- Urinary excretion, fraction of the administered dose ([3]; animal 2, day 9 of treatment): 3.7%
- Urinary excretion ([3]; animal 2, day 11 of treatment): 40.9 nmol/24 h
- Urinary excretion, fraction of the administered dose ([3]; animal 2, day 11 of treatment): 4.6%
- Urinary excretion ([3]; animal 2, day 13 of treatment): 21.0 nmol/24 h
- Urinary excretion, fraction of the administered dose ([3]; animal 2, day 13 of treatment): 2.2%
- Urinary excretion ([3]; animal 3, day 3 of treatment): 4.4 nmol/24 h
- Urinary excretion, fraction of the administered dose ([3]; animal 3, day 3 of treatment): 0.5%
- Urinary excretion ([3]; animal 3, day 5 of treatment): 30.9 nmol/24 h
- Urinary excretion, fraction of the administered dose ([3]; animal 3, day 5 of treatment): 3.5%
- Urinary excretion ([3]; animal 3, day 7 of treatment): 62.4 nmol/24 h
- Urinary excretion, fraction of the administered dose ([3]; animal 3, day 7 of treatment): 6.9%
- Urinary excretion ([3]; animal 3, day 9 of treatment): 17.8 nmol/24 h
- Urinary excretion, fraction of the administered dose ([3]; animal 3, day 9 of treatment): 2.0%
- Urinary excretion ([3]; animal 3, day 11 of treatment): 33.6 nmol/24 h
- Urinary excretion, fraction of the administered dose ([3]; animal 3, day 11 of treatment): 3.7%
- Urinary excretion ([3]; animal 3, day 13 of treatment): 48.1 nmol/24 h
- Urinary excretion, fraction of the administered dose ([3]; animal 3, day 13 of treatment): 5.3%
- 24 h urinary excretion, % of the daily administered dose ([3]; range over the course of the study, OTA 2 mg/kg bw for 2 weeks (5 days/week)): 0.5–6.9%
